Laboratory results taken from patent US20110098177A1, “METHODS AND COMPOSITIONS OF PLANT MICRONUTRIENTS” (NOVUS INTERNATIONAL INC., priority 2006, published 2011).
Like-named read-outs stand apart in the source and are kept apart here. Marks after values point to notes of the source that are not given here.

How the values were obtained:
Assay type in all cases: in vivo
[1] = system: Tygress tomato plants; assay: Yields of tomato fruits, greenhouse spring 2009 (Examples 13-15)
Experimental: (§1) The following experiments were performed in a green house during the spring of 2009 at GCREC, Balm, University of Florida. Crop set-up, procedures and variables were as follows.
(§2) Transplants of ‘Tygress’ tomato plants were planted in 2-gallon pots filled with commercial planting medium with nutrient concentration of Fe, Zn, Mn, Cu being negligible and insufficient for crop growth. Irrigation and non-micronutrient fertilizer were provided daily through microsprinklers at recommended rates for tomato production in Florida. No pesticides were used. Treatments were as described in Tables 42, 43, and 44 below. BIOX-Cu was compared to Cu-sulfate, BIOX-EDC, and BIOX-O; and BIOX-Fe was compared to Fe-sulfate and BIOX-EDF. BIOX-MEZ is Ca-HMTBA.
(§3) Treatments were applied at 6 WAT (weeks after transplanting) using a water volume of 200 mL/plant. Deionized water was used for foliar applications. A non-ionic surfactant was added. Other nutrients were applied as appropriate under non-limiting conditions.
Marketable fruit were collected three times during the growing season, starting at 10 WAT (4 weeks after the initial treatment). Tomato fruit was graded as marketable and non-marketable. Marketable fruit was sized as extra-large, large, and medium. Non-marketable fruit were harvested and number and weight recorded but not sized.
(§4) Experimental design was a randomized complete block design with 6 replications. Data were analyzed using a general linear model, and means were separated using an LSD test at the 5% significance level.

[2] = system: Aristotle bell pepper; assay: Marketable yield per plant, greenhouse Fall 2007, bell pepper
Experimental: (§5) The following experiments were performed in a green house during the fall of 2007 at GCREC, Balm, University of Florida. Fifteen products, at 3 different application rates were examined. The plot size was 2-gallon pots. Crop set-up, procedures and variables were as follows.
(§6) Transplants of ‘Florida-47’ tomato and ‘Aristotle’ bell pepper plants in the 4-true leaf stage (about 6 inches tall) were planted in 2-gal pots on Aug. 27, 2007. Pots were filled with a commercially available planting medium. This medium was selected based on the mineral composition of the products to be applied without providing significant nutritional inputs to the crops. Irrigation was provided with drip lines delivering between 0.50 and 0.33 gal/day/pot for tomato and bell pepper, respectively, and the crops were irrigated three times per day. No foliar pesticides were necessary.
(§7) There were four control treatments corresponding to each target micronutrient in which non-Fe, non-Mn, non-Zn or non-Cu pots received all other essential nutrients under non-limiting conditions.
(§8) Treatments were applied at three rates (high, medium and low) obtained from the estimated concentration of Zn, Fe, Cu, and Mn foliarly-applied in tomato and bell pepper in field situations (Table 1). Products were weighed and dissolved in 200 ml of deionized water with a non-ionic surfactant and applied to the newly-matured open leaves of each crop at 3 and 7 weeks after transplant (WAT). Treated pots were isolated during application to avoid cross-contamination of other treatments.
(§9) Medium nutrient concentration was determined 1 week before treatment. The mineral composition of the medium was 26.8 ppm NH4—N, 49 ppm NO3—N, 15.8 ppm P, 91.2 ppm K, 82.3 ppm Ca, 58.2 ppm Mg, 23.9 ppm Na, 125.6 ppm S, 1.33 ppm Fe, 0.39 ppm Mn, 0.35 ppm Zn, 0.05 pp, Cu, 0.04 ppm B, 0 ppm Mo, 0.73 ppm Al, and 12.1 ppm Si. The pH of the medium was 5.36 and the electric conductivity was 1.38 mS/cm. The foliar tissue analysis was performed at 6 WAT and the concentration of N, P, K, Mg, Ca, S, B, Zn, Mn, Fe, and Cu was determined by a commercial laboratory. Plant toxicity was determined at 4 WAT by using a 0-10 visual scale, where 0=no visible damage and 10=total plant death. Marketable fruit weight was collected 2 times in bell pepper and 4 times in tomato following USDA standards.
(§10) Data were analyzed using a general linear model, and means were separated using orthogonal contrasts at the 5% significance level.

[3] = system: Tygress tomato plants; assay: Foliar nutrient concentration at 7 WAT, greenhouse tomato spring 2009 (Examples 13-15); conditions: 7 WAT
Experimental: as §1, §2, §3
Foliar tissue nutrient analysis was performed at 3 WAT (i.e., 3 weeks before treatment) and 7 WAT (i.e., 1 weeks after treatment) on the non-applied newest leaves. The concentrations of N, P, K, Mg, Ca, B, Zn, Mn, Fe, and Cu in the foliar tissue were determined by a commercial laboratory. There were no significant differences between the foliar nutrient concentrations of any of the treatment groups prior to treatment.
as §4

[4] = system: Aristotle bell pepper; conditions: 1 week after treatment, scale 0 = no visible injury, 10 = plant death
Procedure, shortened: (§11)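 Florida-47 tomato and Aristotle bell pepper transplants in 2-gal pots with low-nutrient medium (pH 5.36), drip-irrigated; products at three rates in deionized water plus non-ionic surfactant sprayed on newly matured leaves at 3 and 7 WAT. Toxicity scored at 4 WAT (0=no damage, 10=death); foliar tissue analysed at 6 WAT; marketable fruit harvested 4 times (tomato).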

[5] = system: Florida-47 tomato; conditions: 1 week after treatment, scale 0 = no visible injury, 10 = plant death
Procedure, shortened: as §11

[6] = system: Tygress tomato plants; conditions: for Toxicity (0-10): 0=no injury, 10=plant death
Experimental: as §1, §2, §3
Toxicity of the treatments was assessed by rating foliar tissue using a visual scale, where 0=no injury and 10=plant death.
as §4

[7] = system: Florida-47 tomato; assay: Marketable yield per plant, greenhouse Fall 2007, tomato
Experimental: as §5, §6, §7, §8, §9, §10

[8] = foliar application at 3 and 7 WAT, rates not separated

Structure (SMILES): CSCCC(O)C(=O)[O-].CSCCC(O)C(=O)[O-].[Ca+2] (stereo not shown) [BIOX-MEZ, Ca-HMTBA]
- Marketable yield ([1]; 0.6 lb/acre): 1100 g/plant
- Marketable yield ([1]; 1.2 lb/acre): 875 g/plant
- Marketable yield ([1]; 2.5 lb/acre): 925 g/plant
- Marketable yield ([1]; 4.8 lb/acre): 1000 g/plant
- Marketable yield ([1]; 7.2 lb/acre): 900 g/plant
- Marketable or non-marketable yields, statement ([1]; BIOX-MEZ treatment): no change in marketable or non-marketable yields
- Marketable yield per plant, Pepper [2, 8]: 3.2* lb/plant
- Bell pepper yield compared with control (in words) ([2]; foliar applications, P<0.05): significantly increased
- Nutrient concentration in tomato leaves: Ca ([3]; 0.6 lb/acre): 1.3 b %
- Nutrient concentration in tomato leaves: K ([3]; 0.6 lb/acre): 3.8%
- Nutrient concentration in tomato leaves: Mg ([3]; 0.6 lb/acre): 0.6%
- Nutrient concentration in tomato leaves: N ([3]; 0.6 lb/acre): 3.8%
- Nutrient concentration in tomato leaves: P ([3]; 0.6 lb/acre): 0.6%
- Nutrient concentration in tomato leaves: Ca ([3]; 1.2 lb/acre): 1.3 b %
- Nutrient concentration in tomato leaves: K ([3]; 1.2 lb/acre): 4.4%
- Nutrient concentration in tomato leaves: Mg ([3]; 1.2 lb/acre): 0.6%
- Nutrient concentration in tomato leaves: N ([3]; 1.2 lb/acre): 4.2%
- Nutrient concentration in tomato leaves: P ([3]; 1.2 lb/acre): 0.7%
- Nutrient concentration in tomato leaves: Ca ([3]; 2.5 lb/acre): 1.3 b %
- Nutrient concentration in tomato leaves: K ([3]; 2.5 lb/acre): 3.9%
- Nutrient concentration in tomato leaves: Mg ([3]; 2.5 lb/acre): 0.5%
- Nutrient concentration in tomato leaves: N ([3]; 2.5 lb/acre): 4.4%
- Nutrient concentration in tomato leaves: P ([3]; 2.5 lb/acre): 0.7%
- Nutrient concentration in tomato leaves: Ca ([3]; 4.8 lb/acre): 1.2 b %
- Nutrient concentration in tomato leaves: K ([3]; 4.8 lb/acre): 3.9%
- Nutrient concentration in tomato leaves: Mg ([3]; 4.8 lb/acre): 0.6%
- Nutrient concentration in tomato leaves: N ([3]; 4.8 lb/acre): 3.8%
- Nutrient concentration in tomato leaves: P ([3]; 4.8 lb/acre): 0.6%
- Nutrient concentration in tomato leaves: Ca ([3]; 7.2 lb/acre): 1.7 a %
- Nutrient concentration in tomato leaves: K ([3]; 7.2 lb/acre): 4.6%
- Nutrient concentration in tomato leaves: Mg ([3]; 7.2 lb/acre): 0.6%
- Nutrient concentration in tomato leaves: N ([3]; 7.2 lb/acre): 4.7%
- Nutrient concentration in tomato leaves: P ([3]; 7.2 lb/acre): 0.7%
- Foliar Ca concentration, statement ([3]; BIOX-MEZ at a rate of 7.2 lb/acre): significantly increased
- Foliar levels of N, P, K, and Mg, statement ([3]; BIOX-MEZ treatment): not affected
- Pepper toxicity ([4]; High rate): 0
- Pepper toxicity ([4]; Low rate): 0
- Pepper toxicity ([4]; Medium rate): 0
- Tomato toxicity ([5]; High rate): 0
- Tomato toxicity ([5]; Low rate): 0
- Tomato toxicity ([5]; Medium rate): 0
- Toxicity (0-10) ([6]; 0.6 lb/acre): 0
- Toxicity (0-10) ([6]; 1.2 lb/acre): 0
- Toxicity (0-10) ([6]; 2.5 lb/acre): 1
- Toxicity (0-10) ([6]; 4.8 lb/acre): 1
- Toxicity (0-10) ([6]; 7.2 lb/acre): 1
- Toxic effects on the tomato plants, statement ([6]; BIOX-MEZ application): no major toxic effects
- Marketable yield per plant, Tomato [7, 8]: 3.0* lb/plant
- Tomato yield compared with control (in words) ([7]; foliar applications, P<0.05): significantly increased
